Assay results published in patent US20220233457A1 (DAEGU CATHOLIC UNIVERSITY INDUSTRY ACADEMIC COOPERATION …, priority 2021, published 2022).
Entries after “also recorded” stand apart in the source; their conditions may differ.

Assays:
CD68 = CD68 (macrophage marker) expression in cerebral arterial wall (IHC); assay type: in vivo, mouse; details: immunohistochemistry staining, levels 0 to 2; compared to diseased group (D)
Procedure: (§1) A male C57BL/6J mouse was purchased from Samtako Bio Korea, and, after acclimation for about 1 week, the healthy animals were housed in a polycarbonate cage with random allocation to each test group. Environmental condition for breeding includes a temperature of 22±3° C., relative humidity of 50±10%, lighting hour of 12 hours, and illuminance of 150 to 300 lux. The animals were allowed free access to food and water. Hypertension was induced by a high salt diet, unilateral nephrectomy, and subcutaneous pump infusion of angiotensin II.
Specifically, a male C57BL/6J mouse was anesthetized with isoflurane gas and the left kidney was removed by surgery. One week after the surgery, the mouse was fixed onto a nose cone, anesthetized with isoflurane gas by inhalation, and then fixed on a stereostatic system. By using a 10 μl Hamilton syringe, 10 μl of 1.0 U elastase solution was injected to the right cistern to induce cerebral aneurysm. […]
(§2) By using the brain tissues harvested in above Example 2, a change in the expression level of MCP-1 and CD68 in the cerebral arterial wall was determined by immunohistochemistry (IHC) staining. The result was classified into level 0 to level 2 and subjected to statistical analysis, while it was measured by real-time PCR and Western blot.

mouse blood = test: Hemolysis test; assay type: cell-based; details: at 50 μg/mL
MMP-9 = MMP-9 expression in cerebral arterial wall (IHC, real-time PCR, Western blot); assay type: in vivo, mouse; details: compared to diseased group (D); for expression level of MMP-9 protein: Western blot; for MMP-9 expression in the cerebral arterial wall: immunohistochemistry staining, levels 0 to 2
Procedure: as §1
(§3) Specifically, a male C57BL/6J mouse was anesthetized with isoflurane gas and the left kidney was removed by surgery. One week after the surgery, the mouse was fixed onto a nose cone, anesthetized with isoflurane gas by inhalation, and then fixed on a stereostatic system. By using a 10 μl Hamilton syringe, 10 μl of 1.0 U elastase solution was injected to the right cistern to induce cerebral aneurysm. For elastase injection, 1.0 U elastase was injected through a hole on the right skull, under anesthetization with isoflurane gas by inhalation, by pushing the syringe to a space of cerebrospinal fluid in the right bottom, 2.5 mm behind the bregma (parietal point) and 1.0 mm to the right of the center line, and elastase was injected to the depth of 5.0 min.
(§4) After that, to have a continuous infusion of angiotensin II, an osmotic pump was subcutaneously inserted (1000 ng/kg/min) and cerebral aneurysm was induced by performing a high salt diet (8% NaCl, Enbigo) for 14 days (FIG. 2).
(§5) To the all test groups, the pharmaceutical was administered in an amount of 0.1 ml.
By using the brain tissues harvested in above Example 2, a change in the expression level of MMP-9 in the cerebral arterial wall was determined by immunohistochemistry (IHC) staining. The result was classified into level 0 to level 2 and subjected to statistical analysis, while it was measured by real-time PCR and Western blot.
(§6) For the real-time PCR performed in above Examples 4 to 6, the primers described in the following Table 1 were used.

[1] = system: mouse induced to have a cerebral aneurysm; test: Trichrome staining, collagen content of cerebral artery wall; assay type: in vivo; details: via tail vein, week 4
Procedure: as §1
as §3, with “[…]. […]” for “min.”

RAW 264.7 cells = test: Cytotoxicity, MTT assay; assay type: cell-based; details: for concentration at which cell viability is lowered by cytotoxicity: MTT assay, treatment time not stated in Example 7; for melittin concentration at which cell viability was significantly decreased: RAW 264.7 cells, 0.1-4 μg/ml tested
[2] = system: mouse induced to have a cerebral aneurysm; test: H&E staining of cerebral arteries (diameter, thickness) in animal model induced to have a cerebral aneurysm; assay type: in vivo; details: compared to diseased group (D); via tail vein, 5 times every three days; brain harvested at week 4
Procedure: as §1, §3, §4
To the all test groups, the pharmaceutical was administered in an amount of 0.1 ml. […]
According to the visualization of cell nucleus, cytoplasm, and extracellular matrix by H&E staining of cerebral artery tissues, a change in the structure and shape of the cerebral artery was analyzed. To examine a change in the brain arterial wall, an immunohistochemical microscopic image was scanned and the diameter and thickness of the artery were measured by using Case Viewer software.

[3] = system: mouse induced to have a cerebral aneurysm; test: Verhoff Van Gieson staining, elastin content of cerebral arterial wall; assay type: in vivo; details: healthy group 37.6±8.8%, diseased group 5.9±3.7%; via tail vein; week 4
Procedure: as §1
as §3, with “[…]. […]” for “min.”
Elastin content was analyzed by Verhoff Van Gieson staining technique.

TNF-α = TNF-α expression in cerebral arterial wall (IHC, real-time PCR, Western blot); assay type: in vivo, mouse; details: for expression level of TNF-α protein: Western blot; for expression level of TNF-α protein / expression level of TNF-α gene: compared to group induced to have cerebral aneurysm; for expression level of TNF-α in cerebral arterial wall: immunohistochemistry staining, levels 0 to 2, compared to diseased group (D); for expression level of TNF-α gene: real-time PCR
Procedure: as §1, §3, §4, §5
By using the brain tissues harvested in above Example 2, a change in the expression level of TNF-α in the cerebral arterial wall was determined by immunohistochemistry (IHC) staining. The result was classified into level 0 to level 2 and subjected to statistical analysis, while it was measured by real-time PCR and Western blot assays.
as §6

NFκB = NFκB expression in cerebral arterial wall (real-time PCR, Western blot); assay type: in vivo, mouse; details: compared to group induced to have cerebral aneurysm; for expression level of NFκB protein: Western blot; for expression level of NFκB gene: real-time PCR
MCP-1 = MCP-1 expression in cerebral arterial wall (IHC, real-time PCR, Western blot); assay type: in vivo, mouse; details: compared to diseased group (D); for expression level of MCP-1 protein: Western blot; for expression level of MCP-1 in the cerebral arterial wall: immunohistochemistry staining, levels 0 to 2
Procedure: as §1, §3, §4, §5, §2, §6

[4] = Stability of melittin solution on storage; assay type: physicochemical; details: 0.36 mM (=1.0 mg/ml) melittin solution, 4° C. for 8 weeks

Row | Compound | expression level of CD68 in the cerebral arterial wall (CD68) | expression level of MMP-9 protein (MMP-9) | MMP-9 expression in the cerebral arterial wall (MMP-9) | concentration at which cell viability is lowered by cytotoxicity (RAW 264.7 cells) | thickness of cerebral arteries [2] | elastin content [3] | expression level of TNF-α protein (TNF-α) | expression level of TNF-α in cerebral arterial wall (TNF-α) | expression level of TNF-α gene (TNF-α) | expression level of NFκB protein (NFκB) | expression level of NFκB gene (NFκB) | expression level of MCP-1 protein (MCP-1) | expression level of MCP-1 in the cerebral arterial wall (MCP-1) | also measured
1 | MeLioN: iron oxide nanoparticle loaded with melittin, formed by linking iron oxide nanoparticle, L-arginine, and melittin | suppressed | lower | suppressed | > 4000 ng/mL | increase; also recorded: significantly greater | 34.9±6.2% | lower | suppressed | lower | lower | lower | lower | suppressed | Hemolysis (mouse blood): approximately 10%; expression level of MMP-9 gene (MMP-9; real-time PCR): lower; collagen content ([1]; normal group 8.7±3.8%, diseased group 32.0±5.5%): 12.6±5.1%; melittin concentration at which cell viability was significantly decreased (RAW 264.7 cells; 12 h treatment): > 4 µg/mL; melittin concentration at which cell viability was significantly decreased (RAW 264.7 cells; 24 h treatment): > 4 µg/mL; diameter of cerebral arteries [2]: statistically significant decrease; also recorded: significantly smaller; expression level of MCP-1 gene (MCP-1; real-time PCR): lower
2 | CC[C@H](C)[C@H](NC(=O)CN)C(=O)NCC(=O)N[C@@H](C)C(=O)N[C@H](C(=O)N[C@@H](CC(C)C)C(=O)N[C@@H](CCCCN)C(=O)N[C@H](C(=O)N[C@@H](CC(C)C)C(=O)N[C@H](C(=O)N[C@H](C(=O)NCC(=O)N[C@@H](CC(C)C)C(=O)N1CCC[C@H]1C(=O)N[C@@H](C)C(=O)N[C@@H](CC(C)C)C(=O)N[C@H](C(=O)N[C@@H](CO)C(=O)N[C@@H](Cc1c[nH]c2ccccc12)C(=O)N[C@H](C(=O)N[C@@H](CCCCN)C(=O)N[C@@H](CCCNC(=N)N)C(=O)N[C@@H](CCCCN)C(=O)N[C@@H](CCCNC(=N)N)C(=O)N[C@@H](CCC(N)=O)C(=O)N[C@@H](CCC(N)=O)C(N)=O)[C@@H](C)CC)[C@@H](C)CC)[C@@H](C)O)[C@@H](C)O)C(C)C)C(C)C [MEL, melittin] | suppressed | lower | suppressed | ≥ 500 ng/mL | increase | 19.7±7.8% | lower | suppressed | lower | lower | lower | lower | suppressed | stability of solution [4]: stably maintained; collagen content compared to the diseased group (D) ([1]; statistical comparison with diseased group): no statistical difference
